Laboratory results: US20180311161A1, “AMPHIPHILIC POLYMERS ENCAPSULATING THERAPEUTICALLY ACTIVE AGENTS” (TECHNION RESEARCH & DEVELOPMENT FOUNDATION LIMITED, priority 2015, published 2018)

What was measured:
[1] = Encapsulation of efavirenz in polymeric micelles (apparent solubility, solubility factor); format: physicochemical; conditions: 37° C.
Description: The encapsulation capacity of the micelles was studied with the antiretroviral efavirenz. For this, 1%, 3%, 5% and 10% w/v CS-N52 and 1% CS-N74 polymeric micelles were prepared and 2-10 mg of drug per mL of micellar suspension added. The suspension was magnetically stirred at 37° C. (48 h), filtered (1.2 μm, Minisart® NML cellulose acetate, Sartorius AG, Goettingen, Germany) to remove insoluble drug, the filtrate diluted (1/10) in distilled water and 10 mL extracted with dichloromethane (3×20 mL). The organic solution was evaporated under vacuum, re-dissolved in methanol and the absorbance measured in microplate spectrophotometer (λ=248 nm). Then, the EFV concentration was calculated by interpolation in a calibration curve in the range of 0.02-80 μg/mL (R^2>0.9999). Finally, the solubility factor (fs) was determined according to
where Sa is the apparent solubility of active agent (herein: efavirenz) in the polymeric micelles and Si is the intrinsic solubility of the active agent (efavirenz) in a polymer-free medium (7 μg/mL), at 37° C. Measurements were performed in triplicate and the results are expressed as the mean±S.D. Efavirenz-loaded micelles before and after ionotropic crosslinking were characterized for Dh, PDI and Z-potential by DLS (see above).

Caco2 cell line = experiment: In vitro cell compatibility, MTT method; format: cell-based; conditions: crosslinker, versus only-medium control (100% viability)
Description: Since these polymeric micelles are envisioned for the administration by mucosal routes, including the oral one, their cell compatibility before and after corona-crosslinking was evaluated in a Caco2 cell line (ATCC® HTB-37™) obtained from American Type Culture Collection (ATCC®, Manassas, Va., USA).
In exemplary embodiments, cells were cultured in Eagle's Minimum Essential Medium (EMEM, Life Technologies Corp., Carlsbad, Calif., USA) supplemented with L-glutamine, 10% heat-inactivated fetal bovine serum (FBS, Sigma-Aldrich) and penicillin/streptomycin (5 mL of a commercial mixture of 100 U/mL of penicillin+100 μg/mL streptomycin per 500 mL medium, Sigma-Aldrich) and maintained at 37° C. in a humidified 5% CO2 atmosphere and split 1:10 into fresh media every three-four days. Cells were harvested by trypsinization (trypsin-EDTA 0.25%, Sigma-Aldrich) and the number of live cells was quantified the trypan blue (1%, Sigma-Aldrich) exclusion assay and a Neubauer chamber. To determine the compatibility of the polymeric micelles (expressed as percentage with respect to a blank incubated with culture medium), cells were cultured in 96-well plates (5×10^3 cells/well) and allowed to attach over 72 h. The medium in each well was replaced by different samples (concentration between 0.1%, 0.3% and 0.5% in PBS+medium) and cells incubated over 4 and 24 h. […]

Row | Compound | Si (intrinsic solubility in a polymer-free medium) [1] | viability of Caco2 cells (MTT) (Caco2 cell line)
1 | O=C1Nc2ccc(Cl)cc2[C@@](C#CC2CC2)(C(F)(F)F)O1 [efavirenz] | 7 µg/mL | 
2 | O=P(O)(O)OP(=O)(O)OP(=O)(O)O [TPP, sodium tripolyphosphate] |  | did not affect the viability of the cells
